ChEMBL document CHEMBL3988442, “University of Dundee, Small-Polar-MMV Screening Library” (2021)

System: Plasmodium falciparum
Assay: Calibr Malaria Delayed Death Assay SOP
Assay type: functional, organism-based
Conditions: for IC50: Plasmodium falciparum

Cc1cc(F)ccc1N1CCC(N2C[C@@H](CN(C)C)[C@@H](CO)C2)CC1 gave a pIC50 of 6.511 and an IC50 of 0.314 µM.
For CN(Cc1cc(F)cc2cccnc12)CC1CCN(CCO)CC1, the pIC50 was 6.165 and the IC50 was 0.835 µM.
With Clc1ccc(C2(CNC3=NCCN3)CCCC2)cc1.I the pIC50 was 6.736 and the IC50 was 0.226 µM.
Compound Cl.Fc1ccccc1Cn1c(C2CCNCC2)cc2cccnc21 has a pIC50 of 6.466 and an IC50 of 0.293 µM.
Compound CNS(=O)(=O)c1cccc(C(C)NCc2ccccc2OC)c1 (centres undefined) has a pIC50 of 6.041 and an IC50 of 1.09 µM.
With CN1CCN(Cc2ccccc2Oc2nccc3occc23)CC1 the pIC50 was 6.2 and the IC50 was 0.593 µM.
Work on CCc1cc(CNCc2ccccc2N(C)C2CCN(C)CC2)on1 yielded a pIC50 of 6.107 and an IC50 of 0.828 µM.
O=C(NCC1CCN(CCc2ccccc2)C1)c1cc(Cl)c[nH]1 (centres undefined) gave a pIC50 of 5.911 and an IC50 of 1.26 µM.
With CCc1ncc2c(n1)CN(CC(=O)Nc1ccc(Cl)cn1)CC2 the pIC50 was 5.772 and the IC50 was 1.24 µM.
For CC(C)NC(=O)C1(Cc2ccccc2-c2cccs2)CCNC1 (centres undefined), the pIC50 was 6.06 and the IC50 was 0.982 µM.
Compound COc1ccc2[nH]c(C[C@@H]3C[C@@H](C(C)C)[C@H](CN(C)C)C=C3C)nc2c1 has a pIC50 of 6.245 and an IC50 of 0.615 µM.
CCN(CC1CN(Cc2nc(C3CC3)no2)CCO1)c1cccnn1 (centres undefined) gave a pIC50 of 5.75 and an IC50 of 1.86 µM.
Work on Clc1ccc(C2(CNC3=NCCN3)CC2)cc1.I yielded a pIC50 of 6.323 and an IC50 of 0.505 µM.
For CCC(CN1CCCCC1)NC(=O)C1(c2ccc(F)cc2)CC1.O=C(O)CC(O)(CC(=O)O)C(=O)O (centres undefined), the pIC50 was 6.19 and the IC50 was 0.709 µM.
Oc1ccc(Cl)cc1CNCc1ccccc1C(F)(F)F was tested, and the pIC50 was 6.047 and the IC50 was 1.08 µM.
For CC(O)CN1CCC(CNCc2cccc(Cl)c2)CC1 (centres undefined), the pIC50 was 6.249 and the IC50 was 0.599 µM.
CN(Cc1ncc(C(C)(C)C)o1)CC1CCCN1c1cccnn1 (centres undefined) was tested, and the pIC50 was 5.852 and the IC50 was 1.62 µM.
Compound CC(NCC1CCN(CCO)CC1)c1ccc(Cl)cc1 (centres undefined) has a pIC50 of 6.133 and an IC50 of 0.671 µM.
Compound Cc1cc(CN(C)c2nc(-c3ccccn3)nc3c2CCNCC3)n[nH]1 has a pIC50 of 5.981 and an IC50 of 1.08 µM.
Cc1cc(Br)cnc1NCCN1CCC(N(C)C)CC1 showed a pIC50 of 6.294 and an IC50 of 0.472 µM.
O=S(=O)(NCC(c1ccsc1)N1CCCCCC1)c1cccs1 (centres undefined) showed a pIC50 of 6.118 and an IC50 of 0.904 µM.
Cc1cnn(CCNCc2nccn2Cc2ccccc2)c1 gave a pIC50 of 6.212 and an IC50 of 0.395 µM.
O=C(O)C(F)(F)F.O=C(O)C(F)(F)F.O=C(O)C(F)(F)F.c1ccc(CN2CCCC3(CCN(Cc4cccs4)C3)C2)nc1 (centres undefined) was tested, and the pIC50 was 6.204 and the IC50 was 0.735 µM.
With CCOc1ccc(Cl)cc1C1CCCCN1.Cl (centres undefined) the pIC50 was 6.229 and the IC50 was 0.612 µM.
For O=C(O)C(F)(F)F.c1ccc(N2CCCC3(CCN(Cc4ccsc4)C3)C2)nc1 (centres undefined), the pIC50 was 6.157 and the IC50 was 0.842 µM.
CCC[C@H]1CN(c2nc(CO)cs2)C[C@@H]1NC(=O)C1(COC)CC1 gave a pIC50 of 5.825 and an IC50 of 1.6 µM.
In the case of O=C(NCCc1ccccc1)NCCN1CCC(c2cccs2)CC1, the pIC50 is reported as 6.05 and the IC50 is reported as 0.855 µM.
With CN1CCC2(CCCN(c3nccc(C(F)(F)F)n3)C2)CC1.O=C(O)C(F)(F)F the pIC50 was 6.246 and the IC50 was 0.771 µM.
CN(C)CCn1nc(C2CCN(Cc3ccccc3)C2)c2cccnc21 (centres undefined) gave a pIC50 of 5.827 and an IC50 of 2.24 µM.
CN(C)[C@@H]1CCN(S(=O)(=O)C2CC2)[C@H]1Cc1ccccc1.O=C(O)C(F)(F)F showed a pIC50 of 5.682 and an IC50 of 2.83 µM.
In the case of CC(C)n1ccnc1C1CCCN(c2ccnc3ccccc23)C1 (centres undefined), the pIC50 is reported as 6.118 and the IC50 is reported as 0.829 µM.
Compound CN(Cc1ccoc1)C(=O)C1(Oc2ccc(Cl)cc2)CCNCC1 has a pIC50 of 6.021 and an IC50 of 0.977 µM.
Clc1cccc2c3c([nH]c12)CCN(Cc1cc2n(n1)CCCNC2)C3 showed a pIC50 of 6.194 and an IC50 of 0.965 µM.
With CN(CCO)Cc1cc(Cl)ccc1OCC(O)CN1CCCCCC1 (centres undefined) the pIC50 was 6.095 and the IC50 was 0.765 µM.
In the case of COc1cccc(CNCc2ccc(F)c(Cl)c2)c1O, the pIC50 is reported as 6.294 and the IC50 is reported as 0.5 µM.
Compound Cc1cc(C)cc(CN2C[C@H]3COC[C@H](N4CCN(C)CC4)[C@H]3C2)c1.O=C(O)C(F)(F)F.O=C(O)C(F)(F)F.O=C(O)C(F)(F)F has a pIC50 of 6.958 and an IC50 of 0.197 µM.
For Cc1nccn1CCCN1CCCC(c2ccccc2)C1 (centres undefined), the pIC50 was 6.639 and the IC50 was 0.234 µM.
In the case of O=C(O)C(F)(F)F.c1ccc(NC[C@@H]2CCC[C@@H]3CN(Cc4cccnc4)C[C@@H]32)nc1, the pIC50 is reported as 5.946 and the IC50 is reported as 1.22 µM.
CCNC(=O)N(C)C1CCN(Cc2ncc(C)c(OC)c2C)CC1 gave a pIC50 of 5.844 and an IC50 of 1.59 µM.
CN(Cc1cc(Cl)cc2cccnc12)CC1CCN(CCO)CC1 gave a pIC50 of 6.604 and an IC50 of 0.346 µM.
In the case of COc1cccc([C@H]2CN(C(C)=O)[C@@H]3CCN(Cc4ccsc4)C[C@H]23)c1.Cl, the pIC50 is reported as 5.897 and the IC50 is reported as 1.07 µM.
Compound CN(C[C@H]1CN2CC[C@H]1C[C@@H]2CNC(=O)c1ccco1)c1ccccc1 has a pIC50 of 5.968 and an IC50 of 1.13 µM.
O=C(Nc1nccs1)C1CCCN1Cc1ccccn1 (centres undefined) gave a pIC50 of 6.607 and an IC50 of 0.229 µM.
COCCC1(CNC(=O)Nc2ccnc(C)c2)CCCC1 showed a pIC50 of 6.054 and an IC50 of 0.876 µM.
With COCCN1CCC2(CC1)CC(NCc1ccc(C)s1)c1ccccc12.O=C(O)C(F)(F)F.O=C(O)C(F)(F)F (centres undefined) the pIC50 was 6.267 and the IC50 was 0.561 µM.
COc1cc(C(=O)NCc2ccc3c(c2)CCCN3C)cc(OC)c1Br gave a pIC50 of 6.846 and an IC50 of 0.251 µM.
OCCN1CCC(CNCc2ccc(Br)cc2)CC1 was tested, and the pIC50 was 6.334 and the IC50 was 0.364 µM.
With CCc1ccc(CN(CCN(C)C)Cc2ccc(C)s2)nc1 the pIC50 was 6.04 and the IC50 was 0.965 µM.
CC(C)CN1CCCC1c1ccc(C(=O)Nc2cccnc2)s1 (centres undefined) was tested, and the pIC50 was 6.101 and the IC50 was 0.537 µM.
In the case of O=C([C@@H]1Cc2[nH]cnc2CN1Cc1cc2ccccc2o1)N1CCCC1, the pIC50 is reported as 5.967 and the IC50 is reported as 1.09 µM.
Compound COc1cc(CNCC(O)c2ccc(F)cc2F)cc2c1OCO2 (centres undefined) has a pIC50 of 6.074 and an IC50 of 0.972 µM.
CC(C)Oc1ncnc2c1CCN(Cc1ccco1)CC2.O=C(O)C(F)(F)F was tested, and the pIC50 was 6.106 and the IC50 was 1.02 µM.
In the case of CCN1CCC(CNCc2cc(C)ccc2OC)C1 (centres undefined), the pIC50 is reported as 6.037 and the IC50 is reported as 1.15 µM.
c1ccc(Oc2nccc3occc23)c(CN2CCCCC2)c1 was tested, and the pIC50 was 6.272 and the IC50 was 0.735 µM.
For c1cnnc(N2CCCC2CNc2ncnc3sccc23)c1 (centres undefined), the pIC50 was 5.797 and the IC50 was 1.26 µM.
In the case of CN(C)c1nc2c(c(NCc3cc(O)ncn3)n1)CCCC2, the pIC50 is reported as 6.202 and the IC50 is reported as 0.643 µM.
Cc1ccc(C2(CN(C)Cc3sccc3C)CCNCC2)nc1 showed a pIC50 of 6.117 and an IC50 of 0.515 µM.
In the case of Cc1ccc(C(C)NCCc2nccn2Cc2ccccc2)o1 (centres undefined), the pIC50 is reported as 5.88 and the IC50 is reported as 1.26 µM.
With COc1ccc(-c2c(C)nn3c(=N)c(C#N)n[nH]c23)cc1OC the pIC50 was 6.297 and the IC50 was 0.538 µM.
For O=C(O)C(F)(F)F.O=C(O)C(F)(F)F.O=C(O)C(F)(F)F.c1cnn(C[C@@H]2C[C@@H]3CN(CC4CC4)CC[C@@H]3N2c2nccs2)c1, the pIC50 was 6.063 and the IC50 was 0.859 µM.
CN(C)CCN(Cc1cccnc1)C(=O)c1ccn(-c2ccccc2)n1 was tested, and the pIC50 was 5.955 and the IC50 was 0.876 µM.
With CC(C)N1CCC(NCc2cccnc2N(C)Cc2ccccc2)CC1 the pIC50 was 6.416 and the IC50 was 0.447 µM.
